Results reported in patent US6583274B1, “Crystalline forms of macrolide antibiotic” (Pfizer Inc., priority 1999, dated 2003).
One block for each molecule: values may come before it.

Columns and labels:
[1] = hygroscopicity measurement (weight vs relative humidity on storage); format: physicochemical; details: for hygroscopicity: about 87% relative humidity, ambient temperature
Experimental: FIG. 3: Weight (Pct) - Relative humidity (Pct).
As used herein, the term “non-hygroscopic” when used to describe a composition of matter means that the composition of matter absorbs moisture at a rate of less than about 0.4% over 24 hours at 90% relative humidity.
A particular advantage conferred by this form is its lack of hygroscopicity.
(§1) From this and other data, it has been determined that crystalline anhydrous CP-472,295 is non-hygroscopic at about 87% relative humidity for about 72 hours at ambient temperature. This unexpected property allows the low-cost, efficient handling and storage of the drug, and the facile incorporation of accurate amounts of the drug into a variety of dosage forms.
as §1, with “Crystalline CP-472,295 monohydrate, like the crystalline anhydrous form described above, is advantageously non-hygroscopic. […] From” for “From”, “crystalline” for “crystalline anhydrous”, “CP-472,295 monohydrate” for “CP-472,295”, “7 days” for “72 hours”
By contrast, the pseudomorph formed when the monohydrate loses water is hygroscopic, and reabsorbs the water of hydration within about 4 hours when stored at about 87% relative humidity at ambient temperature.

[2] = water loss under routine handling conditions; format: physicochemical; details: routine handling conditions (e.g., 25° C. and 70% relative humidity)

SMILES: CCCNC[C@]1(O)[C@H](C)O[C@@H](O[C@H]2[C@H](C)[C@@H](O[C@@H]3O[C@H](C)C[C@H](N(C)C)[C@H]3O)[C@@](C)(O)C[C@@H](C)CN[C@H](C)[C@@H](O)[C@](C)(O)[C@@H](CC)OC(=O)[C@@H]2C)C[C@@]1(C)OC [crystalline anhydrous CP-472,295]
hygroscopicity ([1]; about 72 hours): non-hygroscopic (absorbs moisture at a rate of less than about 0.4% over 24 hours at 90% relative humidity)

hygroscopicity ([1]; pseudomorph formed when the monohydrate loses water): hygroscopic | time to reabsorb the water of hydration ([1]; stored at about 87% relative humidity at ambient temperature): ≤ 4 h
SMILES: CCCNC[C@]1(O)[C@H](C)O[C@@H](O[C@H]2[C@H](C)[C@@H](O[C@@H]3O[C@H](C)C[C@H](N(C)C)[C@H]3O)[C@@](C)(O)C[C@@H](C)CN[C@H](C)[C@@H](O)[C@](C)(O)[C@@H](CC)OC(=O)[C@@H]2C)C[C@@]1(C)OC [pseudomorph]

loss of water (stability of hydrate) [2]: readily loses water
SMILES: CCCNC[C@]1(O)[C@H](C)O[C@@H](O[C@H]2[C@H](C)[C@@H](O[C@@H]3O[C@H](C)C[C@H](N(C)C)[C@H]3O)[C@@](C)(O)C[C@@H](C)CN[C@H](C)[C@@H](O)[C@](C)(O)[C@@H](CC)OC(=O)[C@@H]2C)C[C@@]1(C)OC [crystalline CP-472,295 sesquahydrate]

SMILES: CCCNC[C@]1(O)[C@H](C)O[C@@H](O[C@H]2[C@H](C)[C@@H](O[C@@H]3O[C@H](C)C[C@H](N(C)C)[C@H]3O)[C@@](C)(O)C[C@@H](C)CN[C@H](C)[C@@H](O)[C@](C)(O)[C@@H](CC)OC(=O)[C@@H]2C)C[C@@]1(C)OC [crystalline CP-472,295 monohydrate]
hygroscopicity ([1]; about 7 days): non-hygroscopic (absorbs moisture at a rate of less than about 0.4% over 24 hours at 90% relative humidity)
